{
  "source": "patent US8124412B2",
  "about": "“Method of culturing conifer somatic embryos using S(+)-abscisic acid” (Cellfor Inc., priority 2005, dated 2012)",
  "key": {"[1]": {"system": "loblolly pine somatic embryos, line 76", "assay": "Loblolly pine somatic embryo maturation: plantable germinants per gram of tissue plated", "type": "cell-based, Pinus taeda (loblolly pine)", "method": "The culture medium for loblolly pine was TX medium (see Table 1) with the following additives: Glutamine 2500 mg/L, casein hydrolysate 3000 mg/L, and pH 5.8. The following compounds were added into the basal medium for loblolly pine somatic embryo development at different stages:\n1) Solid maintenance medium: 9 μM 2,4-D and 4.5 μM BA, gellan gum 0.3%, sucrose 1%, lactose 2%.\n2) Liquid maintenance and bulking-up medium: 9 μM 2,4-D and 4.5 μM BA, 1% sucrose, 2% lactose.\n3) Liquid pre-treatment medium: 1% sucrose, 2% lactose.\n4) Preculture II medium. Lactose 2%, 1% sucrose\n5) Solid maturation containing 1% gellan gum, and 2500 mg/L L-glutamine and 3000 mg/L casein hydrolysate, 3% sucrose. The maturation media contained different types of ABA and concentrations. S,R-ABA (98% purity) was tested at the previously determined optimum of 120 μM. S-ABA (90% purity) was tested at 60 μM and 120 μM. 0.3 grams of tissue were plated per petri-plate). Culture was for 18 weeks in the dark at room temperature. After, the embryos were desiccated for 1.5 hours in a stream of sterile air to a moisture content of less than 10%. Plates were stored at −28° C.\n6) Germination. The filter papers with desiccated embryos attached were moved onto germination medium shown in Table 2, and cultured in the dark for 1 week then transferred to light. The numbers of germinants of suitable quality for planting were counted."}, "[2]": {"system": "loblolly pine germinants/seedlings, line 76", "assay": "Loblolly pine merchantable miniplug seedlings in nursery after maturation treatments", "type": "in vivo, Pinus taeda (loblolly pine)", "details": "line 76 (FIG. 5)", "method": "The effect of the different kinds of ABA on the survival and vigour of germinants was investigated. The germinants were prepared as described above except that ABA in the maturation medium consisted of 95% and 98% purity S-ABA, which was used in the maturation medium at 60 and 120 μM concentration. The S,R-ABA (98% purity) was used at 60 and 120 μM concentration. Miniplug seedlings of merchantable quality were scored after 14 weeks in the nursery."}, "[3]": {"system": "loblolly pine somatic embryos, line 76", "assay": "Loblolly pine: S-ABA concentration in preculture II medium and maturation medium", "type": "cell-based, Pinus taeda (loblolly pine)", "details": "S-ABA 95% purity, line 76 (FIG. 6)", "method": "The effect of S-ABA (95% purity) was tested in the loblolly pine pre-culture II medium followed by maturation medium. Somatic embryos of line 76 were cultured as described above; however, ABA was added to the pre-culture medium and maturation medium in the following treatments: […]"}, "[4]": {"system": "Douglas fir somatic embryos", "assay": "Douglas fir somatic embryogenesis: maturation, germination and conversion after culture on S-ABA or S,R-ABA", "type": "cell-based, Pseudotsuga menziesii (Douglas fir)", "method": "The culture medium used for Douglas fir was TX medium (see Table 1) with the following additives: glutamine 100 mg/L, casein hydrolysate 100 mg/L, and pH 5.8. The following compounds were added into the basal medium for Douglas fir somatic embryo development at different stages:\n1) Solid maintenance medium: 9 μM 2,4-D and 4.5 μM BA, gellan gum 0.28%, sucrose 1%.\n2) Liquid maintenance and bulking-up medium: 9 μM 2,4-D and 4.5 μM BA, different carbon sources for experiments.\n3) Liquid pre-treatment medium: 20 (first week) or 30 μM ABA (second week), 10% PEG4000 (first week) or PEG1500 (second week), different carbon sources as described in examples below.\n4) Solid maturation medium consisted of three media all with 0.02% NH4NO3 and the following:\nMedium I. 40 μM ABA, 10% PEG 1500, maltose 2.5%, gellan gum 0.6%\nMedium II. 60 μM ABA, 10% PEG1500, maltose 2.5% and sucrose 1%, gellan gum 0.8%\nMedium III. 70 μM ABA, 6% PEG1500, sucrose 6%, gellan gum 1%.\nThe culture was kept in darkness at 23° C. Embryogenic tissue was sub-cultured once every two weeks onto solid maintenance medium. […]\n5) Germination. The cultures were germinated at room temperature for 2 to 3 weeks on TX medium (Table 1), 0.5% gellan gum, 1 g/L NH4NO3 after which the germinants were hand selected and placed in low-light for 1 week and high-light for 7 weeks then planted in miniplugs and evaluated after 14 weeks."}},
  "data": [
    {"smiles": "CC1=CC(=O)CC(C)(C)C1(O)/C=C/C(C)=C\\C(=O)O", "note": "(stereo not shown) [S,R-ABA, reference compound]", "values": [
      {"measurement": "optimum concentration in maturation medium", "setting": "[1]; loblolly pine, S,R-ABA 98% purity, previously determined", "value": 120, "unit": "µM"}
    ]},
    {"smiles": "CC1=CC(=O)CC(C)(C)[C@@]1(O)/C=C/C(C)=C\\C(=O)O", "note": "(mixture of isomers) [S-ABA, (+)-cis,trans-Abscisic Acid]", "values": [
      {"measurement": "mean % merchantable seedlings, rank among treatments", "setting": "[2]; 60 μM 98% purity S-ABA, after 14 weeks in nursery", "value": "significantly the is highest"},
      {"measurement": "merchantable seedlings, compared to the 60 μM S,R-ABA treatment", "setting": "[2]; 120 μM S-ABA, after 14 weeks in nursery", "value": "more optimal"},
      {"measurement": "mean % merchantable seedlings, compared to the S,R-ABA treatments", "setting": "[2]; all S-ABA treatments (95% and 98% purity, 60 and 120 μM), scored after 14 weeks in nursery", "value": "higher"},
      {"measurement": "number of plantable germinants per gram of tissue plated, compared to 120 μM S,R-ABA", "setting": "[1]; 60 μM S-ABA (90% purity) in maturation medium, loblolly line 76 (FIG. 4)", "value": "significantly higher"},
      {"measurement": "number of plantable germinants, compared to 120 μM S,R-ABA", "setting": "[1]; 120 μM S-ABA (90% purity) in maturation medium, loblolly line 76 (FIG. 4)", "value": "double"},
      {"measurement": "gradual increase in S-ABA compared to constant ABA throughout development", "setting": "[3]; 45 μM S-ABA in pre-culture medium to 90 μM in maturation medium", "value": "superior"},
      {"measurement": "90 μM S-ABA maturation medium compared to 120 μM S-ABA maturation medium", "setting": "[3]", "value": "superior"},
      {"measurement": "effect on maturation frequencies", "setting": "[4]; Douglas fir, S-ABA compared with S,R-ABA", "value": "similar"},
      {"measurement": "conversion of embryos, increase compared to S,R-ABA", "setting": "[4]; one Douglas fir cell line with low conversion potential, embryos cultured on S-ABA vs S,R-ABA (FIG. 3)", "value": 2.5, "unit": "fold"}
    ]}
  ]
}
